The subject of the assay is S. cerevisiae RPL19A-GFP strain, flow cytometry GFP, 3 h. Put plainly: TOR pathway reporter RPL19A-GFP modulators – cell-based, cherry pick 3, SAR, flow cytometry GFP, multiplex, dose response (AID 488814). On the technique in general: Flow cytometry measures light scatter and fluorescence of single cells or particles in a stream.

As to `Cc1ccc2c(Cl)cc(Cl)c(O)c2n1`, the EC50 was 14.7 µM. As to `Cc1ccc(NN2C(=O)C=C(c3ccccc3)C2=O)cc1`, the 50% effective concentration (EC50) was 0.876 µM. Regarding `CC1=NNC(=O)/C1=C\c1cn(-c2ccccc2)nc1-c1ccc(F)cc1`, the EC50 is 15.3 µM.

Usually EC50 stands for the concentration at which the effect is half-maximal.
